# From article PMC12647591, “Evolution, structure and function of L-cysteine desulfidase, an enzyme involved in sulfur metabolism in the methanogenic archeon Methanococcus maripaludis” (Communications Biology, 2025)
# Substitutions are numbered along the chain they refer to.
# B1: L-cysteine desulfidase CyuA from Methanococcus maripaludis (enzyme, Methanococcus maripaludis strain S2)
# chain: MDDYKRILITKILKNEVTEALGCTEVGLIGYAVSLCNISDPFSIEKIELTLNNGSFKNAYAVGVPNTKKYGILPAVVGGLLGDHKNKLLVFNGIKYSQKLEDFIKERLKIRVINSPLYCGVKIKDNSGNTFESLIKDNHLNVVIPKINNKLISEINGSEKEEYKNLELLDFLEYIDEIPEEIIQLVEKTIYTNNNLIKGDFLNFGNDCLSNMVNKTTSACNTRMIGENMPAMSVAKSGNMGIMATLPIIAYDYSNEQNQEKLIKSILLSVLVTIYATYKSSYLSSMCGCVSKGGMGAVIGLCYYKNGKNIKKLDSAARTFTANLPGIICDGGKVGCALKLASGCFAAYSSLFVDISYENGIVGKNFKECVENISEISKIMGDLDSDIVKIMSKKEI
# notes: L-cysteine desulfidase CyuA (MmCyuA), product of the mmp1468 gene of Methanococcus maripaludis strain S2 (NC_005791.1); synthetic codon-optimised gene in pET15b between NdeI and BamHI; theoretical mass of the monomer 43.7 kDa; the synthetic mmp1468 gene appears to have been cloned whole; Holo form carries one [4Fe-4S] cluster per monomer (Cys287, Cys289, Cys329, Cys336); in crystal 2 a [2Fe-2S] …
# Key:
# [1] = target: T1, L-cysteine desulfidase CyuA (MmCyuA) (Methanococcus maripaludis, UniProt Q6LX84); experiment: crystal structure, […] Å (from crystallization solution); assay type: binding; set-up: gene MMP1468; [2Fe-2S]-MmCyuA, molecule A
# [2] = target: T1, L-cysteine desulfidase CyuA (MmCyuA); experiment: pyruvate formation assay ([…],4-dinitrophenylhydrazine), Lineweaver-Burk and Dixon plots; assay type: biochemical; set-up: gene MMP1468; holo-MmCyuA, recombinant, His-tag removed
# [3] = target: T2, L-cysteine desulfidase CyuA (MmCyuA) (Methanococcus maripaludis, UniProt Q6LX84, C289A); experiment: crystal structure, […] Å (from cryoprotectant); assay type: binding
# T2 construct: gene MMP1468; holo-C289A-MmCyuA
# T2 sequence (Q6LX84 1-396 C289A): B1 chain with C289A
# [4] = target: the molecule itself; experiment: SEC-MALS; apo-MmCyuA (cluster removed with dithionite and EDTA), 100 uL at 2 mg/mL on Superdex 200 10/300 GL Increase, 50 mM Tris-HCl pH 8.5, 300 mM NaCl, 5 mM DTT
molecule,measurement,setting,value
O=S(=O)(O)CCN1CCOCC1 [2-(N-morpholino)ethanesulfonic acid],"crystal structure, 2.42 Å (from crystallization solution)",[1],sulfonate group of MES and the chloride ion were located at the same anion binding site
N[C@@H](CO)C(=O)O [L-serine],Ki,[2],15 ± 0.3 µM
"OCC(O)CO [GOL, glycerol]","crystal structure, 3.18 Å (from cryoprotectant)",[3],One terminal hydroxyl of the glycerol molecule was coordinated to that Fe atom
B1,stoichiometry N,[4],2
